Measured values reported in patent US20030068611A1, “Methods for increasing microbial metabolic efficiency through regulation of oxidative stress” (priority 2001, published 2003).

Key:
Assay type in all cases: cell-based, E. coli
oxyR2 = conditions: 10 microliters of 30% hydrogen peroxide or cumene hydroperoxide on 1/4 in filter disc on LB plate, 24 h at 37° C., typical numbers
wild type = conditions: 10 microliters of 30% hydrogen peroxide or cumene hydroperoxide on 1/4 in filter disc on LB plate, 24 h at 37° C., typical numbers
MC4100/oxyR^+ = test: resistance to organic solvent, tetralin overlay on LB plate, wild type; conditions: wild type strain (oxyR^+); 5 mm depth tetralin overlay on LB agar; overnight at 37° C.
Method: (§1) Wild type MC4100/oxyR^+ and MC4100oxyR2 mutants were streaked onto the same LB plate made with a 80 mm diameter PYREX Petri dish (VWR International, West Chester, Pa.). Solvent tetralin (1,2,3,4-tetrahydronaphthalene) was then poured onto the LB agar surface to have a 5 mm depth of overlay. The plate was then covered with a Petri dish cover and sealed with a strip of parafilm (American National Can, Chicago, Ill.), and put into 37° C. incubator. After overnight culturing, tetralin was decanted and the plate was put into a fume hood for 30 min to allow evaporation of the remaining tetralin. A picture of the plate was taken with an Eagle Eye® II still imaging system (Stratagene, La Jolla, Calif.).

MC4100oxyR2 = test: resistance to organic solvent, tetralin overlay on LB plate, oxyR2 mutant; conditions: oxyR2 mutant strain; 5 mm depth tetralin overlay on LB agar; overnight at 37° C.
Method: as §1

SMILES	Diameter of the zone killed (oxyR2)	Diameter of the zone killed (wild type)	colony growth under solvent overlay (MC4100/oxyR^+)	colony growth under solvent overlay (MC4100oxyR2)
OO [Hydrogen peroxide]	13 mm	25 mm	–	–
c1ccc2c(c1)CCCC2 [tetralin, 1,2,3,4-tetrahydronaphthalene]	–	–	No colony was observed	grew just fine
